Test results taken from BindingDB's records for doi:10.1021/jm049408n (University of Camerino, 2005).

Biological target: Adenosine receptor A3 (Bos taurus)
Assay: Displacement of [125I]AB-MECA from adenosine A3 receptors in bovine cortical membranes

Ki: 240 nM
SMILES: CNC(=O)[C@H]1O[C@@H](n2cnc3c(NCc4cccc(I)c4)ncnc32)[C@](C)(O)[C@@H]1O [3,4-Dihydroxy-5-[6-(3-iodo-benzylamino)-purin-9-yl]-4-methyl-tetrahydro-furan-2-carboxylic acid methylamide]
